Experimental data reported in patent publication US4321265A, “7α-Methoxycephalosporins” (Toyama Chemical Co., Ltd., priority 1977, dated 1982).
≈ marks a conversion by molar mass, not a printed value. Where two headings read alike, the source gives them in different places.

How the values were obtained:
Ser. marcescens W-35 = experiment: Minimum inhibitory concentration (MIC), Heart Infusion agar; assay type: cell-based; conditions: Serratia marcescens, W35, 20 h, S. marcescens W-35, read-out: MIC
Protocol: Antibacterial activities of the representative compounds (Ib) of the 7α-methoxycephalosporins according to this invention are shown in Table 1. [drawing 20]
The figures given in Table 1 represent the minimum inhibitory concentration (MIC in mcg/ml) of each compound, which was determined according to the method described in "Chemotherapy (Society of Chemotherapy, Japan), Vol. 16, 98-99 (1968)": A culture obtained by cultivating the test bacterium in a Heart Infusion broth (Eiken Kagaku Co.) was inoculated into a Heart Infusion agar medium (Eiken Kagaku Co.). After 20 hours of the incubation at 37° C., the growth of the bacterium was inspected to determine the minimum inhibitory concentration (MIC in mcg/ml). […]
(1) Minimum inhibitory concentration (MIC in mcg/ml).

[1] = target: T1, Cephalosporinase (E. coli GN-5482) (Escherichia coli, UniProt P00811); experiment: Stability to β-lactamase, iodometry (Perret); assay type: biochemical; conditions: E. coli GN-5482 cephalosporinase; CER = 100; 30° C., pH 7.0
T1 construct: native preparation, details not in excerpts
Protocol: (§1) The stability to β-lactamase was examined by iodometry at 30° C. by the method of Perret (Perret, C. J., "Iodometric assay of penicillinase", Nature, 174, 1012-1013 (1954)), except that a 0.1 M phosphate buffer solution (pH 7.0) was used in place of the 0.2 M phosphate buffer solution (pH 6.5). The stability of each compound was shown in Table 2 in terms of relative degree of hydrolysis, assuming the stability of Cephaloridin (CER) to cephalosporinase as 100 and the stability of Penicillin G (PCG) to penicillinase as 100.

[2] = target: T2, Cephalosporinase (S. marcescens W-8) (Serratia marcescens, UniProt P18539); experiment: Stability to β-lactamase, iodometry (Perret); assay type: biochemical; conditions: S. marcescens W-8 cephalosporinase; CER = 100; 30° C., pH 7.0
T2 construct: native preparation, details not in excerpts
Protocol: as §1

[3] = system: Penicillinase (E. coli TK-3); experiment: Stability to β-lactamase, iodometry (Perret); assay type: biochemical; conditions: E. coli TK-3 penicillinase; PCG = 100; 30° C., pH 7.0
Protocol: as §1

[4] = system: Penicillinase (K. pneumoniae Y-4); experiment: Stability to β-lactamase, iodometry (Perret); assay type: biochemical; conditions: K. pneumoniae Y-4 penicillinase; PCG = 100; 30° C., pH 7.0
Protocol: as §1

[5] = system: Penicillinase (P. aeruginosa GN-3379); experiment: Stability to β-lactamase, iodometry (Perret); assay type: biochemical; conditions: P. aeruginosa GN-3379 penicillinase; PCG = 100; 30° C., pH 7.0
Protocol: as §1

[6] = target: T3, β-lactamase (cephalosporinase, E. coli GN-5482) (Escherichia coli, UniProt P00811); experiment: Inhibitory dose to β-lactamase, iodometric method of Perret, Cefazolin as substrate; assay type: biochemical
T3 construct: producing bacteria; endogenous in cells; host or cells: E. coli GN-5482

[7] = target: T4, β-lactamase (cephalosporinase, S. marcescens W-8) (Serratia marcescens, UniProt P18539); experiment: as above; assay type: biochemical; conditions: read-out: Inhibitory dose to β-lactamase (ID50) (converted)
T4 construct: producing bacteria; endogenous in cells; host or cells: S. marcescens W-8

[8] = target: T5, β-lactamase (cephalosporinase, C. freundii GN-346) (Citrobacter freundii, UniProt P05193); experiment: as above; assay type: biochemical; conditions: read-out: Inhibitory dose to β-lactamase (ID50) (converted)
T5 construct: producing bacteria; endogenous in cells; host or cells: C. freundii GN-346

S. marcescens W-35 = experiment: Infection-protective activity in mice; assay type: in vivo, ICR-strain mice (male); conditions: subcutaneous, one hour after intraperitoneal inoculation; challenge dose 2.5 × 10^5 cells/mouse; ICR mice
Source text: Four-week old ICR-strain mice (male) in groups, each group consisting of five mice, were inoculated intraperitoneally with a prescribed quantity of a pathogenic bacterium suspended in 5% mucin. After one hour from the inoculation, the mice were subcutaneously administered with the test preparation to determine the infection-protective activity. The figures in Table 4 represent the protective activity in terms of ED50.

Toxicity (LD50) = conditions: mouse, in vivo; ICR-strain mice; intravenous
Source text: The 7α-methoxycephalosporins of this invention are low-toxic.

T3 sequence (P00811 20-377): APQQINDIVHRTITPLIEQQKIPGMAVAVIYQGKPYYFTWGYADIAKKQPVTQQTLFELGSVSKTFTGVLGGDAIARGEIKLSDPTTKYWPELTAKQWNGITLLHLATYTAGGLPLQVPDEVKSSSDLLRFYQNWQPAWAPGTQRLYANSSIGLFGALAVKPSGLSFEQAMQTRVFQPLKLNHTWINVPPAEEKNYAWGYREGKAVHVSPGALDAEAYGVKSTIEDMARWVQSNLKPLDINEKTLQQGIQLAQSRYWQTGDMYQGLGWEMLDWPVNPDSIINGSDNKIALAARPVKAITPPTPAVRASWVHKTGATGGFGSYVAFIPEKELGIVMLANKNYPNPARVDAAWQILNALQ
T1 sequence (P00811 20-377): as above
T5 sequence (P05193 21-381): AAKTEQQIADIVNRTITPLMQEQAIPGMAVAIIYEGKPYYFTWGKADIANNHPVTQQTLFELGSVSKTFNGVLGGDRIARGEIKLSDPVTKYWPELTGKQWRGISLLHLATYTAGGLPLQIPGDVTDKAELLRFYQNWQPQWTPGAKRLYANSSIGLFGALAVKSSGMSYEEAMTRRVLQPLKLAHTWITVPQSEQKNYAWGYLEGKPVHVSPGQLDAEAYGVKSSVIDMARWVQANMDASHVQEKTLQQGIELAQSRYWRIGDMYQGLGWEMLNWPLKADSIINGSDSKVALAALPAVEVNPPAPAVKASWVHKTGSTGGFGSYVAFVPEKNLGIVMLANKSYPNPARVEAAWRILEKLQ
T4 sequence (P18539 22-376): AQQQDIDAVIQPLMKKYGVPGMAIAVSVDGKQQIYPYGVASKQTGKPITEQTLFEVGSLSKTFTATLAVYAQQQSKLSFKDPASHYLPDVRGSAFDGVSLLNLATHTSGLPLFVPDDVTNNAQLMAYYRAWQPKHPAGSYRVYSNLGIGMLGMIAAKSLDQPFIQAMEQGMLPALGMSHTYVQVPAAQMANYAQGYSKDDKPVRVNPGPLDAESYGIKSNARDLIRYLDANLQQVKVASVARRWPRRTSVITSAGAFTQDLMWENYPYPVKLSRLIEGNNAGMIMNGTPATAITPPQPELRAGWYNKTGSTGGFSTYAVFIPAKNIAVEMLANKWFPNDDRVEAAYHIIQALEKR
T2 sequence (P18539 22-376): as above

Structure (SMILES): CCN1CCN(C(=O)NC(C(=O)N[C@]2(OC)C(=O)N3C(C(=O)O)=C(CSc4nnnn4C)CS[C@@H]32)c2cccs2)C(=O)C1=O (stereo partly drawn) [Example T-1414]
- MIC (Ser. marcescens W-35; inoculated bacteria quantity 10^6 cells/ml (Table 4)): 6.25 µg/mL (≈ 9.39 µM)
- MIC (Ser. marcescens W-35; inoculated bacteria quantity 10^8 cells/ml (Table 4)): 12.5 µg/mL (≈ 18.8 µM)
- Stability to β-lactamase, relative degree of hydrolysis [1]: < 0.1
- Stability to β-lactamase, relative degree of hydrolysis [2]: 0.02
- Stability to β-lactamase, relative degree of hydrolysis [3]: < 0.003
- Stability to β-lactamase, relative degree of hydrolysis [4]: < 0.09
- Stability to β-lactamase, relative degree of hydrolysis [5]: 0.03
- IC50 [6]: 1230 nM
- IC50 [7]: 811 nM
- IC50 [8]: 2550 nM
- ED50 (infection-protective activity) (S. marcescens W-35): 0.84 mg/mouse
- LD50 (Toxicity (LD50)): ≥ 5000 mg/kg
